Reference: a melting point compilation (Tetko et al.; mined from patent text by program, amines drawn as free bases though some values may be those of a salt)

`COCc1cccc(C(C#N)c2nc(OC)cc(OC)n2)c1[N+](=O)[O-]` (stereo unspecified) gave a melting point of 112 to 113 °C.
`CC(=O)c1ccc2c(c1)-c1ccccc1-2` showed a melting point of 134 to 135 °C.
With `O=C(O)c1ccc(C(=O)c2ccc(Br)cc2)cc1` the melting point was 270 to 271 °C.
`COC(=O)c1ccc(Oc2ccc([N+](=O)[O-])cc2C(=O)OC)cc1` showed a melting point of 103 to 105 °C.
With `N#Cc1ccc(C(=O)c2ccc(S)cc2)cc1` the melting point was 156 °C.
Compound `Cc1coc(C)c1-c1nc2ccc(C(=O)c3ccccc3)cc2[nH]1` has a melting point of 203 to 208 °C.
`O=C(Nc1ccc2ccc(Cl)nc2n1)Oc1ccccc1` showed a melting point of 208 °C.
`CCOC(=O)N1CC2(C1)N=C(N)c1c(F)cccc1N2` showed a melting point of 210 to 212 °C.
For `Cc1c(-c2cccnc2)n(Cc2ccc(C#N)cc2)c2ccccc12`, the melting point was 127 to 129 °C.
Compound `COc1ccc2c(c1)CCC1C2CCC2(C)C(NCCCCCCNc3ccc([N+](=O)[O-])cc3[N+](=O)[O-])CCC12` (stereo unspecified) has a melting point of 90 to 92 °C.
With `Nc1cc(Cl)cc(Cl)c1C(=O)NCc1ccccc1` the melting point was 90 to 96 °C.
For `S=C(Nc1ccc(Nc2ccccc2)cc1)Nc1ccc(Nc2ccccc2)cc1`, the melting point was 164 to 171 °C.
With `CC(C)CNc1cc[nH]c(=S)c1C#N` the melting point was 117 to 119 °C.
Work on `CCOC(=O)CCc1ccc(OCc2ccc(OCc3nc(-c4ccccc4)oc3C)cc2)cc1OCC` yielded a melting point of 64 to 65 °C.
With `Cc1ccc(S(=O)(=O)n2c(CCCC(=O)O)cc3nc(Cl)ccc32)cc1` the melting point was 172 °C.
Compound `CCCc1c(OCCCC(=O)NCCCCCCc2cccnc2)ccc(C(C)=O)c1O` has a melting point of 69 to 71 °C.
`C[C@@H](NC(=O)c1sc(-c2ccc(Cl)cc2)nc1C(F)(F)F)[C@](O)(Cn1cncn1)c1ccc(F)cc1F` gave a melting point of 78 to 79 °C.
`O=C1C(c2c[nH]c3ccccc23)C(c2c[nH]c3ccccc23)C(=O)N1c1ccccc1` (stereo unspecified) gave a melting point of 260 to 263 °C.
`COc1cc2oc(=O)c(CCCl)c(C)c2cc1O` showed a melting point of 230 to 235 °C.
For `NCC1Cc2cc(-c3ccccc3)cc(-c3ccccc3)c2O1` (stereo unspecified), the melting point was greater than 250 °C.
Compound `CC1(C)CN(C2CCN(CCc3ccc(F)cc3)CC2)c2cc(CN)ccc21` has a melting point of 131 to 133 °C.
Work on `FC(F)(F)c1c[nH]c(-c2ccc(-c3nc(C(F)(F)F)c[nH]3)cc2)n1` yielded a melting point of 325 °C.
In the case of `Cc1c(O)cccc1C(=O)N[C@@H](Cc1ccccc1)[C@H](O)C(=O)N1CSC(C)(C)[C@H]1C(=O)N[C@@H](C)c1ccccc1`, the melting point is reported as 114 to 115 °C.
`CCOc1ccc(C2=CC(C)(C)Oc3c(OCC)cc(Cc4cnc(N)nc4N)cc32)cc1` gave a melting point of 186 to 188 °C.
With `C=CCOc1cc(C)c2c(C)cc(=O)oc2c1` the melting point was 178 °C.
`O=S(=O)(O)c1ccccc1Nc1ccnc2cc(Cl)ccc12` showed a melting point greater than 300 °C.
In the case of `OC(=S)CCc1ccc(Cl)c(Cl)c1`, the melting point is reported as 63 to 64 °C.
Work on `C=CC(=O)Oc1cccc(O)c1O` yielded a melting point of 92 to 95 °C.
`Nc1nc(C(F)(F)F)nc2c1ncn2C1OC(CO)C(O)C1O` (stereo unspecified) gave a melting point of 173 to 175 °C.
In the case of `CCOC(=O)C1CCN(C(N)=S)CC1`, the melting point is reported as 97 to 98 °C.
For `CCOC(=O)c1ccc(-c2nn(Cc3ccccc3)c3ccccc23)o1`, the melting point was 98 to 99 °C.
`CC(=O)NC(C)(C)c1ccc(-c2nc(Nc3ccc(F)cc3)ncc2C#N)cc1` gave a melting point of 212 to 216 °C.
For `CCNC(=S)NS(=O)(=O)c1cc2c(cc1OC)OCCC2CNC(=O)c1cc(Cl)ccc1OC` (stereo unspecified), the melting point was 196 to 197 °C.
Work on `CN1C(=O)CN(c2ccccc2)C1=O` yielded a melting point of 168 to 170 °C.
`O=C(N1CCCN(C(=O)C(F)(F)F)CCN(C(=O)C(F)(F)F)CCCN(C(=O)C(F)(F)F)CC1)C(F)(F)F` showed a melting point of 217 to 218 °C.
Work on `NC(=O)CCSC(SCCC(=O)O)c1cccc(SCc2ccc3ccc(Cl)cc3n2)c1` (stereo unspecified) yielded a melting point of 141 to 142 °C.
Work on `OCc1cnc2sc3c(n12)CCCCC3` yielded a melting point of 145 to 146 °C.
With `CC(C)(C)c1ccc(Oc2nc(Nc3cccc(CO)c3)nc(Oc3ccccc3)n2)cc1` the melting point was 47 to 50 °C.
For `CC1(C)C(=NO)C(=NO)C(C)(C)N1C(=O)c1ccccc1`, the melting point was 235 to 240 °C.
Compound `Cc1c2c(c(-c3ccc4c(c3)OCO4)c3c4c(ccc13)OCO4)CNC2=O` has a melting point of 292 to 293 °C.
For `C=CCn1c(C)c(C)c2cnnc(CCc3ccc(F)cc3)c21`, the melting point was 123 to 124 °C.
`CC(=O)OCC(COC(C)=O)OCn1cnc2c(=O)[nH]c(N)nc21` showed a melting point of 237 to 239 °C.
In the case of `OC(Cn1cncn1)(c1ccc(Oc2ccc(Cl)cc2)cc1Cl)C1CC1` (stereo unspecified), the melting point is reported as 170 °C.
In the case of `COC(=O)c1nc(C)c(-c2ccncc2C)s1`, the melting point is reported as 95.5 to 96.3 °C.
Compound `CCCCc1oc2ccccc2c1C(=O)c1ccc(OCCBr)cc1` has a melting point of 46 to 47 °C.
In the case of `CS(=O)c1ccc(C(=O)CCCCC#N)cc1` (stereo unspecified), the melting point is reported as 89.5 to 91.5 °C.
With `COc1ccc2ccc(NC(=O)c3cccc(N(C)C)c3)nc2n1` the melting point was 130 °C.
With `OCCc1ccc(CCO)cc1` the melting point was 83 to 84 °C.
In the case of `COc1cccc(NC(=O)C(C)(C)C)c1CCO`, the melting point is reported as 118 to 120 °C.
With `CCNc1nc(-c2ccc(F)cc2C)c2ccc(=O)n(-c3c(F)cccc3F)c2n1` the melting point was 195 to 196 °C.
In the case of `CCNC(=O)OCc1cnc(C)c(OC(=O)NCC)c1`, the melting point is reported as 121 to 122 °C.
